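A five-concentration, 48-hour dose response in 96-well plates underlies each endpoint, interpolated linearly between surrounding concentrations. GI50 marks 50% less growth.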 Activity calls are given as the source filed them. Cut-off read from the data, not from the text of the source: active = GI50 up to about 1.1 µM and inactive = higher.
What was measured:
Test in all cases: NCI tumour cell line growth inhibition, 48 h
[1] = test system: 786-0
[2] = test system: IGROV-1
[3] = test system: NCI-H23
[4] = test system: OVCAR-5
[5] = test system: RXF 393
[6] = test system: SF-268
[7] = test system: SNB-19
[8] = test system: SNB-75
[9] = test system: UACC-257
[10] = test system: UACC-62
[11] = test system: A549
[12] = test system: HCT-116
[13] = test system: SF-295
[14] = test system: SR
[15] = test system: NCI-H226

Structure (SMILES) | GI50 [1] | GI50 [2] | GI50 [3] | GI50 [4] | GI50 [5] | GI50 [6] | GI50 [7] | GI50 [8] | GI50 [9] | GI50 [10] | GI50 [11] | GI50 [12] | GI50 [13] | GI50 [14] | GI50 [15]
O=C(O)[C@H](NS(=O)(=O)c1ccc2ccccc2c1)c1ccccc1 | > 100 µM (inactive) | > 100 µM (inactive) | > 100 µM (inactive) | > 100 µM (inactive) | 20.6 µM (inactive) | > 100 µM (inactive) | > 100 µM (inactive) | > 100 µM (inactive) | > 100 µM (inactive) | > 100 µM (inactive) |  |  |  |  | 
NCCSc1cc(O)c2c(c1N)C(=O)c1ccccc1C2=O | 29.9 µM (inactive) | 18.8 µM (inactive) | > 100 µM (inactive) | > 100 µM (inactive) | 27.7 µM (inactive) | 55.8 µM (inactive) | 34 µM (inactive) | 67.6 µM (inactive) |  | 36.7 µM (inactive) | > 100 µM (inactive) | 34 µM (inactive) | 46 µM (inactive) | 20.8 µM (inactive) | 
N#[N+][c-]1c(-c2ccccc2)n[nH]c1=O | > 100 µM (inactive) | > 100 µM (inactive) | > 100 µM (inactive) | > 100 µM (inactive) | > 100 µM (inactive) | > 100 µM (inactive) |  | > 100 µM (inactive) | > 100 µM (inactive) |  | > 100 µM (inactive) | > 100 µM (inactive) | > 100 µM (inactive) | > 100 µM (inactive) | > 100 µM (inactive)
BrC12C3C4C5C(C(C43)C13OCCO3)C52 (stereo not drawn) | > 100 µM (inactive) | > 100 µM (inactive) | > 100 µM (inactive) | > 100 µM (inactive) | > 100 µM (inactive) | > 100 µM (inactive) | > 100 µM (inactive) | > 100 µM (inactive) | > 100 µM (inactive) |  | > 100 µM (inactive) | > 100 µM (inactive) | > 100 µM (inactive) |  | 
COc1ccc(/C=C/C(=O)c2sc(-c3cccnc3)nc2C)cc1 | 41.6 µM (inactive) | 60.1 µM (inactive) | 75.5 µM (inactive) | > 100 µM (inactive) | 26.3 µM (inactive) | 74.6 µM (inactive) |  | 30.1 µM (inactive) | > 100 µM (inactive) | 46.3 µM (inactive) | 39.2 µM (inactive) |  | 35.8 µM (inactive) |  | 23.8 µM (inactive)
O=c1[nH]c(S)nc2c1sc(=S)n2-c1ccccc1 | > 100 µM (inactive) | > 100 µM (inactive) | > 100 µM (inactive) | > 100 µM (inactive) | > 100 µM (inactive) | > 100 µM (inactive) | > 100 µM (inactive) | 55.1 µM (inactive) | > 100 µM (inactive) | > 100 µM (inactive) | > 100 µM (inactive) | > 100 µM (inactive) | > 100 µM (inactive) | > 100 µM (inactive) | > 100 µM (inactive)
CC12CC/C(=N/NC(N)=O)C3C1CCCC32 | > 100 µM (inactive) | > 100 µM (inactive) | > 100 µM (inactive) |  |  | > 100 µM (inactive) | > 100 µM (inactive) | > 100 µM (inactive) | > 100 µM (inactive) | > 100 µM (inactive) | > 100 µM (inactive) | > 100 µM (inactive) | > 100 µM (inactive) | > 100 µM (inactive) | > 100 µM (inactive)
COC(=O)/C(C#N)=C1\CCC(OC)N1C (stereo not drawn) | > 100 µM (inactive) | > 100 µM (inactive) | > 100 µM (inactive) | > 100 µM (inactive) | > 100 µM (inactive) | > 100 µM (inactive) | > 100 µM (inactive) | > 100 µM (inactive) | > 100 µM (inactive) | > 100 µM (inactive) | > 100 µM (inactive) | > 100 µM (inactive) | > 100 µM (inactive) |  | > 100 µM (inactive)
Cc1cc2nc(O)c(CCC(=O)O)nc2cc1C | > 100 µM (inactive) | > 100 µM (inactive) | > 100 µM (inactive) | > 100 µM (inactive) | > 100 µM (inactive) | > 100 µM (inactive) | > 100 µM (inactive) | > 100 µM (inactive) | > 100 µM (inactive) | > 100 µM (inactive) | > 100 µM (inactive) | > 100 µM (inactive) | > 100 µM (inactive) | 43.4 µM (inactive) | > 100 µM (inactive)
CCOC(=O)CCC(=O)C1c2cccc(O)c2C(=O)c2c(O)cccc21 | 1.74 µM (inactive) | 1.87 µM (inactive) | 1.37 µM (inactive) | 1.75 µM (inactive) | 0.71 µM (active) | 0.908 µM (active) | 1.56 µM (inactive) | 0.877 µM (active) | 1.69 µM (inactive) | 0.395 µM (active) | 0.61 µM (active) | 1.31 µM (inactive) | 0.644 µM (active) | 2.24 µM (inactive) | 
CC(/C=C/NNC1=NN=C(c2ccccc2)C(c2ccccc2)N1)Sc1ccccc1N (stereo not drawn) | 3.71 µM (inactive) | 14.4 µM (inactive) | 12.9 µM (inactive) | 17.5 µM (inactive) |  | 4.53 µM (inactive) | 12.5 µM (inactive) | 3.3 µM (inactive) | 7.06 µM (inactive) | 3.39 µM (inactive) | 11.4 µM (inactive) | 6.14 µM (inactive) | 10.5 µM (inactive) | 2.99 µM (inactive) | 10.9 µM (inactive)
CC(C)c1ccccc1NC(=O)CCC(=O)NN | > 100 µM (inactive) | > 100 µM (inactive) | > 100 µM (inactive) |  |  | > 100 µM (inactive) | > 100 µM (inactive) | > 100 µM (inactive) | > 100 µM (inactive) | > 100 µM (inactive) | > 100 µM (inactive) | > 100 µM (inactive) | > 100 µM (inactive) | > 100 µM (inactive) | > 100 µM (inactive)
COc1ccc(-c2cc(-c3cc(Cl)cc(Br)c3O)nc(O)n2)cc1 | 15.5 µM (inactive) | 20.4 µM (inactive) | 14 µM (inactive) |  | 14.5 µM (inactive) | 16.3 µM (inactive) | 23.9 µM (inactive) | 15.4 µM (inactive) | 17.7 µM (inactive) | 14.9 µM (inactive) | 16.7 µM (inactive) | 12.2 µM (inactive) | 18 µM (inactive) | 18 µM (inactive) | 17.5 µM (inactive)
CCSc1nnc(-c2ccccc2)nc1Cc1ccc(OC)cc1 | > 100 µM (inactive) | > 100 µM (inactive) | 63.4 µM (inactive) |  | > 100 µM (inactive) | > 100 µM (inactive) | > 100 µM (inactive) | 65.8 µM (inactive) | 56.5 µM (inactive) | > 100 µM (inactive) | 42.2 µM (inactive) | 38.5 µM (inactive) | 52.5 µM (inactive) | 42.8 µM (inactive) | > 100 µM (inactive)
Cc1ccc2nc(NC(=O)C(=O)C(C#N)c3nc4ccccc4s3)sc2c1 (stereo not drawn) | 44.5 µM (inactive) | 17.8 µM (inactive) | 35 µM (inactive) | 57.5 µM (inactive) | 31.5 µM (inactive) | 51.6 µM (inactive) | 31.8 µM (inactive) | 40.6 µM (inactive) | 28 µM (inactive) | 30.7 µM (inactive) |  | 38.4 µM (inactive) | 37.2 µM (inactive) |  | 25.1 µM (inactive)
CSc1sc(=S)sc1C(=O)N(C)c1ccccc1 | > 100 µM (inactive) | > 100 µM (inactive) | > 100 µM (inactive) | > 100 µM (inactive) | 81.5 µM (inactive) | > 100 µM (inactive) | > 100 µM (inactive) | 22.6 µM (inactive) |  | 78.7 µM (inactive) | > 100 µM (inactive) | > 100 µM (inactive) | > 100 µM (inactive) | 83 µM (inactive) | > 100 µM (inactive)
CC1(C)Oc2ccccc2N2O[C@@H]3C(=O)N(c4ccccc4)C(=O)[C@@H]3C21c1ccccc1 (stereo partly drawn) | 16.6 µM (inactive) | 47.5 µM (inactive) | 97.7 µM (inactive) | 78.3 µM (inactive) | 23.7 µM (inactive) | 33.9 µM (inactive) | 19.7 µM (inactive) | 17.7 µM (inactive) | 34 µM (inactive) | 33.1 µM (inactive) | 20.1 µM (inactive) | 20.8 µM (inactive) | 15.7 µM (inactive) |  | 55.3 µM (inactive)
CCN(CC)C(=O)CCn1ccc(=O)[nH]c1=O | > 100 µM (inactive) | > 100 µM (inactive) | > 100 µM (inactive) | > 100 µM (inactive) | > 100 µM (inactive) | > 100 µM (inactive) | > 100 µM (inactive) | 43.1 µM (inactive) |  | > 100 µM (inactive) | > 100 µM (inactive) | > 100 µM (inactive) | > 100 µM (inactive) | > 100 µM (inactive) | > 100 µM (inactive)
CC(=O)O[C@@H]1CC(C)C2CC2C2=C(C(O)OC2O)[C@@H]1C(C)CCC=C(C)C (stereo partly drawn) | 21.4 µM (inactive) | 25.1 µM (inactive) | 22.2 µM (inactive) | 18.3 µM (inactive) | 17.3 µM (inactive) | 25.8 µM (inactive) | 33.7 µM (inactive) | 26.9 µM (inactive) | 24.1 µM (inactive) | 26.3 µM (inactive) | 22.7 µM (inactive) | 18.4 µM (inactive) |  |  | 20.1 µM (inactive)
COC(=O)C1=Cc2cc(OC)c(OC)c(OC)c2[C@H](c2cc(OC)c(OC)c(OC)c2)C1C(=O)OC (stereo partly drawn) | > 100 µM (inactive) | > 100 µM (inactive) | > 100 µM (inactive) | > 100 µM (inactive) | > 100 µM (inactive) | > 100 µM (inactive) | > 100 µM (inactive) | > 100 µM (inactive) | > 100 µM (inactive) | > 100 µM (inactive) | > 100 µM (inactive) | > 100 µM (inactive) | > 100 µM (inactive) |  | > 100 µM (inactive)
